One may read the CC50 as the concentration that lowers cell viability or growth by half. The EC50 is the concentration that produces a half-maximal response.

Like-named read-outs stand apart in the source and are kept apart here. Some results are limits rather than exact numbers.

For series [1], the system named is DENV2. The series can be described thus: qRT-PCR of intracellular and extracellular DENV2 RNA in infected BHK-21 cells. It counts as cell-based, Dengue virus type 2. The following applies: 5 μM, MOI of 1, 72 h.
A short description of series [2]: Viability of replicon expressing cells. The following applies: hamster, BHK-21 cells expressing DENV2 replicon. (In antiviral work, replicon cells carry a viral genome segment that copies itself.)
The next series concerns the target DENV2 NS5 RdRP (Dengue virus type 2, UniProt P14340). The series can be described thus: RNA-dependent RNA polymerase assay. It counts as biochemical.
The subject of the next series is WNV replicon. The series is described as follows: WNV Rluc reporter replicon inhibition assay in Vero/WNV cells. As to conditions: 24 h; for EC50: read-out: WNV replicon EC50; for % replicon inhibition (Means ± SEM) WNV: 50 μM. It counts as cell-based, West Nile virus.
The target of a further series is T1, DENV2 NS2B-NS3 protease (Dengue virus type 2, UniProt P14340).
T1 sequence (P14340 1476-1653 limits assumed): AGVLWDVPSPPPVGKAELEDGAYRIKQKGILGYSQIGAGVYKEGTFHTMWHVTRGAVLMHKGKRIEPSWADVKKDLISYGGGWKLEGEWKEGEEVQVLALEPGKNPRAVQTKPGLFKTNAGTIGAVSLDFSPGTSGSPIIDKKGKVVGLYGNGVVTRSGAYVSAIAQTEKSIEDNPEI
T1 sequence (P14340 1398-1437 limits assumed): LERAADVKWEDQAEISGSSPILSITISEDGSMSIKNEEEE
It is filed as biochemical.

Series [3] concerns DENV2. The series can be described thus: Direct plaque assay. It is filed as cell-based, Dengue virus type 2. The following applies: MOI of 0.01.
Series [4] addresses DENV2 5'-RNA methyltransferase (NS5FL) (Dengue virus type 2, UniProt P14340). It counts as biochemical.
For another series, the system named is DENV2 replicon. The series can be described thus: DENV2 Rluc reporter replicon inhibition assay in BHK-21/DENV2 cells. As to conditions: for % replicon inhibition (Means ± SEM) DENV2: 50 μM, 24 h, BHK-21/DENV2 replicon cells; for EC50: Dengue virus. It counts as cell-based, Dengue virus type 2.
Series [5] relates to DENV2. The series is described as follows: DENV2 infectivity in BHK-21 cells, plaque assay of supernatants. It counts as cell-based, Dengue virus type 2.
The target in series [6] is Renilla luciferase (Rluc) (Renilla reniformis, UniProt P27652). It counts as biochemical.
Sequence of Renilla luciferase (Rluc) (P27652 whole entry, looked up): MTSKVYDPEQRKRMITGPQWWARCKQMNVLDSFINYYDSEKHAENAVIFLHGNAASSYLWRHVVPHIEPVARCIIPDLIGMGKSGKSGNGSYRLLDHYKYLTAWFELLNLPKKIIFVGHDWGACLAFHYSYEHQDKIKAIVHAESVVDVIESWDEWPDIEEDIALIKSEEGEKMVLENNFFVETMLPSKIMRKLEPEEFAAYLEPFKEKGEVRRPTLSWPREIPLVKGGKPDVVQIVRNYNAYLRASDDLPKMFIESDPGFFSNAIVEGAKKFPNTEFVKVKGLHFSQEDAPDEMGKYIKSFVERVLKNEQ
A short description of the next series: Cytotoxicity. The following applies: African green monkey, naïve Vero cells.
A further series has as its system BHK-21 cells. The series can be described thus: Cytotoxicity. As to conditions: read-out: DENV2 replicon CC50, 24 h.
The subject of another series is Vero cells. The series is described as follows: Cytotoxicity. The following applies: read-out: WNV replicon CC50; Vero cells, 24 h.
[7] abbreviates: DENV2, BHK-21, 24 h, read-out: DENV2 replicon EC50.
[8] abbreviates: Vero/WNV replicon cells, Rluc, initial screening.

With `CCN(CC)Cc1cc(Nc2ccnc3cc(Cl)ccc23)ccc1O` [Compound 1, 4-[(7-chloroquinolin-4-yl)amino]-2(diethylaminomethyl)phenol], the “intracellular and extracellular DENV2 RNA levels (qRT-PCR)” value in the series on DENV2 [1] is reported as “effectively inhibited DENV2 replication”. In series [2], this compound registered a CC50 at 48 h of 52.1 ± 4.25 µM. Further, the “Inhibition of RdRP activity, positive-strand RNA synthesis” value at DENV2 NS5 RdRP (50 μM, 60 min) was found to be 10.58 ± 0.94%. In addition, the inhibition at 50 µM was -17.1 ± 4.37% at DENV2 NS5 RdRP (read-out: Inhibition of RdRP activity, negative-strand synthesis) and 96.3 ± 0.39% with WNV replicon (West Nile virus, Vero, read-out: % replicon inhibition (Means ± SEM) WNV, 50 μM, 24 h, Vero/WNV replicon cells). The EC50 in the series with WNV replicon (West Nile virus, Vero) came to 14.6 ± 2.21 µM; in the series on DENV2 replicon (setting [7]), 10.8 ± 1.43 µM; in the series with DENV2 replicon (DENV2, BHK-21, 48 h, read-out: EC50 DENV2 replicon replication), 7.41 ± 1.09 µM. Further, the “effect on DENV2 protease” value on DENV2 NS2B-NS3 protease is on record as “no effect”. Further, in the series on DENV2 [3] (5 μM during adsorption only), the “effect on DENV2 adsorption” value is recorded as “does not inhibit DENV2 adsorption”. The figures for the “virus titer reduction, direct plaque assay” value with DENV2 [3] (10 μM during adsorption only) and in the series with DENV2 [3] (25 μM during adsorption only) were 69.23 ± 1.57% and 82.70 ± 2.48%, respectively. Besides, the “inhibition of formation of type I cap by NS5FL” value in series [4] was “did not inhibit”. The “% replicon inhibition (Means ± SEM) DENV2” value in the series on DENV2 replicon (listed as AQ) was 76.31 ± 1.60%. Also, the “plaque reduction, time of addition assay” value in the series on DENV2 [5] (5 μM added as late as 15 h post-infection, MOI of 1, supernatants at 72 h) is recorded as not below 90%. The “effect when added late, time of addition assay” value in the series on DENV2 [5] (5 μM added at 21 h post-infection and later, MOI of 1) is listed as “lost its inhibitory effect”. The “reduction of plaque titer from DMSO control, order of addition assay” value in the series on DENV2 [5] (5 μM added post-infection, MOI of 1, 48 and 72 h post-infection) is given as not below 90%. The “plaque formation reduced (time course)” value in the series on DENV2 [5] (5 μM, MOI of 0.01, up to 96 h) is not below 90%. Also, in the series on DENV2 [5] (concluded from time course of inhibition, 37 °C, post-infection), the “stability of AQ in infected cell culture” value is listed as “at least 96 h”. The “interference with Rluc enzyme activity” value in series [6] was “did not interfere”. Moreover, the CC50 at 24 h in the series “Cytotoxicity” is 24.4 ± 2.49 µM.

As to `Cl.ClCCN(CCCl)c1ccc(CCNc2ccnc3cc(Cl)ccc23)cc1` [Compound 4, Chloroquine ethyl phenyl mustard], the “% replicon inhibition (Means ± SEM) WNV” value in the series with WNV replicon (Vero/WNV replicon cells) is recorded as more than 99%. Further, the concentration giving a half-maximal response (EC50) in the series on WNV replicon (setting [8]) was determined as 1.55 ± 0.4 µM. Also, in the series with DENV2 replicon, the “% replicon inhibition (Means ± SEM) DENV2” value was more than 99%. The values for the 50% cytotoxic concentration (CC50) with BHK-21 cells and in the series with Vero cells were 74.1 ± 21.5 µM and 5.02 ± 1.23 µM, respectively.

`CC(CCCN(CCCl)CCCl)Nc1ccnc2cc(Cl)ccc12` (stereo not drawn) [Compound 5, Chloroquine mustard]: the “% replicon inhibition (Means ± SEM) WNV” value with WNV replicon (Vero/WNV replicon cells) is recorded as more than 99%. Also, the half-maximal effective concentration (EC50) turned out to be 2.95 ± 0.77 µM in the series on WNV replicon (West Nile virus, Vero) and 2.9 ± 0.78 µM in the series on DENV2 replicon (setting [7]). Also, the “% replicon inhibition (Means ± SEM) DENV2” value in the series with DENV2 replicon was more than 99%. This compound yielded a CC50 at 24 h in “Cytotoxicity” of 3.64 ± 0.93 µM.

Consider Quinacrine mustard [Compound 9], for which the “% replicon inhibition (Means ± SEM) WNV” value with WNV replicon (Vero/WNV replicon cells) is more than 99%. Also, the EC50 in the series with WNV replicon (setting [8]) is 0.36 ± 0.09 µM. Further, the “% replicon inhibition (Means ± SEM) DENV2” value in the series with DENV2 replicon was more than 99%. For the same compound, the CC50 in the series with BHK-21 cells is 2.4 ± 0.63 µM; with Vero cells it was 0.97 ± 0.11 µM.
